What was measured:
[1] = biological target: T1, human orexin-2 receptor (hOX2R) (Homo sapiens, UniProt O43614); experiment: FLIPR Ca2+ Flux Assay, CHO cells expressing hOX2R; format: cell-based; conditions: agonist 70 pM Ala-6,12 orexin-A
T1 construct: expressed in transfected cells; host or cells: Chinese hamster ovary (CHO) cells, grown under G418 selection
T1 sequence (O43614 1-444): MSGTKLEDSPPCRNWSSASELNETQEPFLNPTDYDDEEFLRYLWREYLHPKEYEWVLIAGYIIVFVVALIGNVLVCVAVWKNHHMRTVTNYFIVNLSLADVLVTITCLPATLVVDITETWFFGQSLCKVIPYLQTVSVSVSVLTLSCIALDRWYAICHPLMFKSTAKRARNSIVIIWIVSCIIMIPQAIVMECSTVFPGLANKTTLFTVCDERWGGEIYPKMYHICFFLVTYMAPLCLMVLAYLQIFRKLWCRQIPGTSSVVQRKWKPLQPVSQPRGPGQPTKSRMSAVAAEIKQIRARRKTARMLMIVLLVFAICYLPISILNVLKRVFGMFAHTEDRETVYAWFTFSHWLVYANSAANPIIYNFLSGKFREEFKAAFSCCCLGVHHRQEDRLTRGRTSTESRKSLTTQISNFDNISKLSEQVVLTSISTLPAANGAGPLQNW
Procedure: The utility of the compounds in accordance with the present invention as orexin receptor OX1R and/or OX2R antagonists may be readily determined without undue experimentation by methodology well known in the art, including the “FLIPR Ca^2+ Flux Assay” (Okumura et al., Biochem. Biophys. Res. Comm. 280:976-981, 2001). In a typical experiment the OX1 and OX2 receptor antagonistic activity of the compounds of the present invention was determined in accordance with the following experimental method. For intracellular calcium measurements, Chinese hamster ovary (CHO) cells expressing the rat orexin-1 receptor or the human orexin-2 receptor, are grown in Iscove's modified DMEM containing 2 mM L-glutamine, […], 1% hypoxanthine-thymidine supplement, 100 U/ml penicillin, 100 μg/ml streptomycin and 10% heat-inactivated fetal calf serum (FCS). The cells are seeded at 20,000 cells/well into Becton-Dickinson black 384-well clear bottom sterile plates coated with poly-D-lysine. All reagents were from GIBCO-Invitrogen Corp. The seeded plates are incubated overnight at 37° C. and 5% CO2. Ala-6,12 human orexin-A as the agonist is prepared as a 1 mM stock solution in 1% bovine serum albumin (BSA) and diluted in assay buffer (HBSS containing 20 mM HEPES, 0.1% BSA and 2.5 mM probenecid, pH7.4) for use in the assay at a final concentration of 70 pM. Test compounds are prepared as 10 mM stock solution in DMSO, then diluted in 384-well plates, first in DMSO, then assay buffer. On the day of the assay, cells are washed 3 times with 100 μl assay buffer and then incubated for 60 min (37° C., 5% CO2) in 60 μl assay buffer containing 1 μM Fluo-4AM ester, 0.02% pluronic acid, and 1% BSA. The dye loading solution is then aspirated and cells are washed 3 times with 100 μl assay buffer. 30 μl of that same buffer is left in each well. Within the Fluorescent Imaging Plate Reader (FLIPR, Molecular Devices), test compounds are added to the plate in a volume of 25 μl, incubated for 5 min and finally 25 μl of agonist is added. Fluorescence is measured for each well at 1 second intervals for 5 minutes and the height of each fluorescence peak is compared to the height of the fluorescence peak induced by 70 pM Ala-6,12 orexin-A with buffer in place of antagonist. For each antagonist, IC50 value (the concentration of compound needed to inhibit 50% of the agonist response) is determined. Alternatively, compound potency can be assessed by a radioligand binding assay (described in Bergman et. al. Bioorg. Med. Chem. Lett. 2008, 18, 1425-1430) in which the inhibition constant (Ki) is determined in membranes prepared from CHO cells expressing either the OX1 or OX2 receptor. The intrinsic orexin receptor antagonist activity of a compound which may be used in the present invention may be determined by these assays.
Chinese hamster ovary (CHO) cells expressing the human orexin-1 receptor (hOX1R) or the human orexin-2 receptor (hOX2R) were grown in Iscove's modified DMEM containing 2 mM L-glutamine, […], 1% hypoxanthine-thymidine supplement, 100 U/ml penicillin, 100 μg/ml streptomycin and 10% heat-inactivated fetal calf serum (FCS). The cells were seeded at 20,000 cells/well into Becton-Dickinson black 384-well clear bottom sterile plates coated with poly-D-lysine. All reagents were from GIBCO-Invitrogen Corp. The seeded plates were incubated overnight at 37° C. and 5% CO2. Ala-6,12 human orexin-A, used as the agonist, was prepared as a 1 mM stock solution in 1% bovine serum albumin (BSA) and diluted in assay buffer (HBSS containing 20 mM HEPES, 0.1% BSA and 2.5 mM probenecid, pH7.4) for use in the assay at a final concentration of 70 pM. Test compounds were prepared as 10 mM stock solution in DMSO, then diluted in 384-well plates, first in DMSO, then assay buffer. […]

[2] = biological target: T2, human orexin-1 receptor (hOX1R) (Homo sapiens, UniProt O43613); experiment: FLIPR Ca2+ Flux Assay, CHO cells expressing hOX1R; format: cell-based; conditions: agonist 70 pM Ala-6,12 orexin-A
T2 construct: expressed in transfected cells; host or cells: Chinese hamster ovary (CHO) cells, grown under G418 selection
T2 sequence (O43613 1-425): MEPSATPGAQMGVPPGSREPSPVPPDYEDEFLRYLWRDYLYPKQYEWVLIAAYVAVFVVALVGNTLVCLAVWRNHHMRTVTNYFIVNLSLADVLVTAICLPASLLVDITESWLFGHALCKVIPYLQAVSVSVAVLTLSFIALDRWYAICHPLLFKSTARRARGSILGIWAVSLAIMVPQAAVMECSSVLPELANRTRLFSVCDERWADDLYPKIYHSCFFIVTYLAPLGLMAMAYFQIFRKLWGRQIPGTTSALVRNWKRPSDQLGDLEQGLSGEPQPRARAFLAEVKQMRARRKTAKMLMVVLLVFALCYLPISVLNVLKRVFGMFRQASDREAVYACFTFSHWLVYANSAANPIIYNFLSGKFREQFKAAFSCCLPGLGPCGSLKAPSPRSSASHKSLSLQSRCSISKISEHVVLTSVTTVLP
Procedure: Chinese hamster ovary (CHO) cells expressing the human orexin-1 receptor (hOX1R) or the human orexin-2 receptor (hOX2R) were grown in Iscove's modified DMEM containing 2 mM L-glutamine, […], 1% hypoxanthine-thymidine supplement, 100 U/ml penicillin, 100 μg/ml streptomycin and 10% heat-inactivated fetal calf serum (FCS). The cells were seeded at 20,000 cells/well into Becton-Dickinson black 384-well clear bottom sterile plates coated with poly-D-lysine. All reagents were from GIBCO-Invitrogen Corp. The seeded plates were incubated overnight at 37° C. and 5% CO2. Ala-6,12 human orexin-A, used as the agonist, was prepared as a 1 mM stock solution in 1% bovine serum albumin (BSA) and diluted in assay buffer (HBSS containing 20 mM HEPES, 0.1% BSA and 2.5 mM probenecid, pH7.4) for use in the assay at a final concentration of 70 pM. Test compounds were prepared as 10 mM stock solution in DMSO, then diluted in 384-well plates, first in DMSO, then assay buffer.
On the day of the assay, cells were washed 3× with 100 μl assay buffer and then incubated for 60 minutes (37° C., 5% CO2) in 60 μl assay buffer containing 1 μM Fluo-4AM ester, 0.02% pluronic acid, and 1% BSA. The dye loading solution was then aspirated and cells were washed 3× with 100 μl assay buffer. 30 μl of that same buffer was left in each well. Within the Fluorescent Imaging Plate Reader (FLIPR, Molecular Devices), test compounds were added to the plate in a volume of 25 μl, incubated for 5 minutes, and then 25 μl of agonist was added. Fluorescence was measured for each well at 1 second intervals for 5 minutes, and the height of each fluorescence peak was compared to the height of the fluorescence peak induced by 70 pM of Ala-6,12 orexin-A with buffer in place of test compound.

COc1ccc(C(=O)N2C[C@H](Oc3ncccc3C(C)(C)O)CC[C@H]2C)c(C2CC2)c1 [Example 15, 2-[2-({(3R,6R)-1-[(2-cyclopropyl-4-methoxyphenyl)carbonyl]-6-methylpiperidin-3-yl}oxy)pyridin-3-yl]propan-2-ol]
IC50 [1]: 148 nM
IC50 [2]: 2300 nM

Cc1ccc(C(=O)N2C[C@H](Oc3ncccc3C(C)(C)O)CC[C@H]2C)c(C2CC2)c1 [Example 16, 2-[2-({(3R,6R)-1-[(2-cyclopropyl-4-methylphenyl)carbonyl]-6-methylpiperidin-3-yl}oxy)pyridin-3-yl]propan-2-ol]
IC50 [1]: 135 nM
IC50 [2]: 349 nM

Cc1ccc(-n2nccn2)c(C(=O)N2C[C@H](Oc3ncccc3C(C)(C)O)CC[C@H]2C)c1 [Example 17, 2-(2-{[(3R,6R)-6-methyl-1-{[5-methyl-2-(2i-1,2,3-triazol-2-yl)phenyl]carbonyl}piperidin-3-yl]oxy}pyridin-3-yl)propan-2-ol]
IC50 [1]: 37 nM
IC50 [2]: 50 nM

C[C@@H]1CC[C@@H](Oc2ncccc2C(C)(C)O)CN1C(=O)c1ccsc1-n1nccn1 [Example 18, 2-(2-{[(3R,6R)-6-methyl-1-{[2-(2H-1,2,3-triazol-2-yl)thiophen-3-yl]carbonyl}piperidin-3-yl]oxy}pyridin-3-yl)propan-2-ol]
IC50 [1]: 9 nM
IC50 [2]: 18 nM

C[C@@H]1CC[C@@H](Oc2ncccc2C(C)(C)O)CN1C(=O)c1ccsc1-c1ncccn1 [Example 19, 2-[2-({(3R,6R)-6-Methyl-1-[(2-pyrimidin-2-ylthiophen-3-yl)carbonyl]piperidin-3-yl}oxy)pyridin-3-yl]propan-2-ol]
IC50 [1]: 13 nM
IC50 [2]: 12 nM

C[C@@H]1CC[C@@H](Oc2ncccc2C(C)(C)O)CN1C(=O)c1cccc(F)c1-c1ncccn1 [Example 20, 2-[2-({(3R,6R)-1-[(3-fluoro-2-pyrimidin-2-yl-phenyl)carbonyl]-6-methyl-piperidin-3-yl}oxy)pyridin-3-yl]propan-2-ol]
IC50 [1]: 98 nM
IC50 [2]: 609 nM

C[C@@H]1CC[C@@H](Oc2ncccc2C(C)(C)O)CN1C(=O)c1cc(F)ccc1-c1ncccn1 [Example 22, 2-[2-({(3R,6R)-1-[(5-fluoro-2-pyrimidin-2-yl-phenyl)carbonyl]-6-methylpiperidin-3-yl}oxy)pyridin-3-yl]propan-2-ol]
IC50 [1]: 82 nM
IC50 [2]: 140 nM

C[C@@H]1CC[C@@H](Oc2ncccc2C(C)(C)O)CN1C(=O)c1ccccc1-c1ncccn1 [Example 23, 2-[2-({(3R,6R)-6-methyl-1-[(2-pyrimidin-2-ylphenyl)carbonyl]piperidin-3-yl}oxy)pyridin-3-yl] propan-2-ol]
IC50 [1]: 69 nM
IC50 [2]: 95 nM

C[C@@H]1CC[C@@H](Oc2ncccc2C(C)(C)O)CN1C(=O)c1sccc1-c1ncccn1 [Example 24, 2-[2-({(3R,6R)-6-methyl-1-[(3-pyrimidin-2-yl-thiophen-2-yl)carbonyl]piperidin-3-yl}oxy)pyridin-3-yl] propan-2-ol]
IC50 [1]: 35 nM
IC50 [2]: 77 nM

Cc1ccc(C(C)(C)O)c(O[C@@H]2CC[C@@H](C)N(C(=O)c3ccccc3-n3nccn3)C2)n1 [Example 25, 2-(6-Methyl-2-{[(3R,6R)-6-methyl-1-{[2-(2H-1,2,3-triazol-2-yl)phenyl]carbonyl}piperidin-3-yl]oxy}pyridin-3-yl)propan-2-ol]
IC50 [1]: 77 nM
IC50 [2]: 55 nM

COc1ccnc(O[C@@H]2CC[C@@H](C)N(C(=O)c3ccccc3-n3nccn3)C2)c1C(C)O (stereo partly drawn) [Example 26, 1-(4-Methoxy-2-{[(3R,6R)-6-methyl-1-{[2-(2H-1,2,3-triazol-2-yl)phenyl]carbonyl}piperidin-3-yl]oxy}pyridin-3-yl)ethanol]
IC50 [1]: 22.5 nM
IC50 [2]: 463 nM

COc1ccnc(O[C@@H]2CC[C@@H](C)N(C(=O)c3ccccc3-n3nccn3)C2)c1C(C)(C)O [Example 27, 2-(4-Methoxy-2-{[(3R,6R)-6-methyl-1-{[2-(2H-1,2,3-triazol-2-yl)phenyl]carbonyl}piperidin-3-yl]oxy}pyridin-3-yl)propan-2-ol]
IC50 [1]: 25 nM
IC50 [2]: 395 nM

C[C@@H]1CC[C@@H](Oc2ncccc2[C@@H](C)O)CN1C(=O)c1ccccc1-n1nccn1 [Example 29, (1R)-1-(2-{[(3R,6R)-6-Methyl-1-{[2-(2H-1,2,3-triazol-2-yl)phenyl]carbonyl}piperidin-3-yl]oxy}pyridin-3-yl)ethanol]
IC50 [1]: 49 nM
IC50 [2]: 1160 nM

C[C@H](O)c1cccnc1O[C@@H]1CC[C@@H](C)N(C(=O)c2ccccc2-n2nccn2)C1 [Example 30, (1S)-1-(2-{[(3R,6R)-6-Methyl-1-{[2-(2H-1,2,3-triazol-2-yl)phenyl]carbonyl}piperidin-3-yl]oxy}pyridin-3-yl)ethanol]
IC50 [1]: 37 nM
IC50 [2]: 76 nM
